Consider six molecules from patent US4382945A, “Tetrahydrothiepino[4,5-d]imidazole derivatives, composition and method of use” (Hoffmann-La Roche Inc., priority 1980, dated 1983).

Structures can show the parent of a compound that is named as a salt.

For one assay, the system named is Plasma glucose. The assay can be described thus: Antihyperglycemic activity: plasma glucose concentration after oral glucose load in fasted rats. The settings on record: percentages of the controls, rats fasted 24 hours, 0.3 mmol/kg p.o., glucose 1.6 g/kg orally 100 minutes later, plasma 20 minutes after glucose, averages. Format: in vivo. The procedure:
Gum arabic (12 control animals) or 0.3 mmol/kg p.o. of test substance (6 experimental animals) is administered to rats (fasted for 24 hours) and 100 minutes later a suspension of 1.6 g of glucose in 10 ml of 5 percent gum arabic is administered orally per kg body weight. The animals are killed 20 minutes after the glucose administration. Plasma is obtained from the heparinized mixed blood. The glucose concentration in the plasma is determined according to the hexokinase method.

For assay [1], the system named is Human platelet-rich plasma (collagen-induced blood platelet aggregation). The assay can be described thus: Collagen-induced blood platelet aggregation (aggregometer method of BORN). Format: cell-based. The settings on record: 10 min; human citrated platelet-rich plasma; 37° C., 10 minutes incubation; collagen-fibrils; maximum aggregation velocity as test parameter. The method, then:
Human platelet-rich plasma was obtained by centrifugation from citrated venous blood. The experiments were carried out with suspensions of the test substances in 0.9% sodium chloride. 0.18 ml of citrate plasma were treated with a 10 μl suspension of the test compounds and incubated at 37° C. for 10 minutes, whereupon the aggregation was initiated by the addition of 10 μl of a suspension of collagen-fibrils.

On to `CC1(C)CSCC(C)(C)c2[nH]c(-c3ccccc3)nc21` [2-phenyl-4,5,7,8-tetrahydro-4,4,8,8-tetramethyl-1-H-thiepino[4,5-d]imidazole], for which, in the assay on Plasma glucose, the “Plasma glucose concentration (%)” value stood at 74%.
Broadly, the EC50 is the concentration needed to bring the measured effect to its halfway point. `CC1(C)CSCC(C)(C)c2[nH]c(-c3cccs3)nc21` [4,5,7,8-Tetrahydro-4,4,8,8-tetramethyl-2-(2-thienyl)-1-H-thiepino[4,5-d]-imidazole hydrochloride]: the half-maximal effective concentration (EC50) in assay [1] turned out to be 19.7 µM.
On to `CC1(C)CSCC(C)(C)c2[nH]c(-c3ccccc3)nc21` [2-Phenyl-4,5,7,8-tetrahydro-4,4,8,8-tetramethyl-1-H-thiepino[4,5-d]-imidazole hydrochloride], for which, in the assay with Plasma glucose (listed as 2-Phenyl-4,5,7,8-tetrahydro-4,4,8,8-tetramethyl-1-H-thiepino-8 4,5-d]-imidazole , hydrochloride), the “Plasma glucose concentration (%)” value is 67%. In addition, the EC50 in assay [1] was found to be 0.8 µM.
In assay [1], `COc1ccc(-c2nc3c([nH]2)C(C)(C)CSCC3(C)C)cc1` [2-(p-Methoxyphenyl)-4,5,7,8-tetrahydro-4,4,8,8-tetramethyl-1-H-thiepino-[4,5-d]imidazole hydrochloride] gave an EC50 of 4.2 µM.
For the molecule `CC1(C)CSCC(C)(C)c2[nH]c(-c3ccc(F)cc3)nc21` [2-(p-Fluorophenyl)-4,5,7,8-tetrahydro-4,4,8,8-tetramethyl-1-H-thiepino-[4,5-d]imidazole hydrochloride], the “Plasma glucose concentration (%)” value in the assay with Plasma glucose is 77%. Besides, the EC50 in assay [1] was determined as 4.7 µM.
The molecule `CC1(C)CSCC(C)(C)c2[nH]c(-c3ccc4c(c3)OCO4)nc21` [2-(3,4-Methylenedioxyphenyl)-4,5,7,8-tetrahydro-4,4,8,8-tetramethyl-1-H-thiepino[4,5-d]imidazole hydrochloride] displayed an EC50 in assay [1] of 1.2 µM.
